This data set can be described thus: recombinant UMI read abundance after kanamycin selection (control-corrected) (log10(CPM+1)); higher = more efficient recombination; extreme values may be limits of the assay; sequences stand for … in AGTGCAGAGAAAATCGGCCAGTTTTCTCTGCCTGCAGTCCGCATGCCGTGGGACCCCTTGGGTTCTAACCTGTTGCCTAGATTTATGCAGCGGACTGCCTTTCTCCCAAAGTGATAAACCGG…AGGTTGGTTTCACT; site = the 11-nt donor. The method in brief: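 Values, expressed as log10(CPM+1), derive from recombinant UMI counts converted to CPM, averaged across replicates and scaled by control-derived factors. Plating was with IPTG (0.07 mM) plus kanamycin or unselected, two replicates each. The screen pooled donor and donor-binding-loop pairs for the IS621 bridge recombinase in Escherichia coli.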
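Note: IS621 bridge recombinase in Escherichia coli cells against a fixed T5 target plasmid.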

Turning to “CTCCCTACATGGACCGGTTTTCCCGGTAATCCGTATTTGAG (site CTCCCTCCTCT)”, the “recombinant UMI read abundance (log10)” value worked out at 0.00493. In the case of “CTCCCTACATGGACCGGTTTTCCCGGTAATCCGTATTTGAG (site CTCCCTGCTCT)”, the “recombinant UMI read abundance (log10)” value stood at 0.0117. Turning to “CTCCCTACATGGACCGGTTTTCCCGGTAATCCGTATTTGAG (site CTCCCTTCTCT)”, the “recombinant UMI read abundance (log10)” value stood at 0.0166.

On to “CTCCCTACATGGACCGGTTTTCCCGGTAATCCGTATTTGAG (site CTCCGTACTCT)”, for which the “recombinant UMI read abundance (log10)” value worked out at 0.0179. For the sequence “CTCCCTACATGGACCGGTTTTCCCGGTAATCCGTATTTGAG (site CTCCTTACTCT)”, the “recombinant UMI read abundance (log10)” value was 0.00587. With “CTCCCTACATGGACCGGTTTTCCCGGTAATCCGTATTTGAG (site CTCGCTACTCT)”, the “recombinant UMI read abundance (log10)” value is 0.0283. Regarding “CTCCCTACATGGACCGGTTTTCCCGGTAATCCGTATTTGAG (site CTCTCTACTCT)”, the “recombinant UMI read abundance (log10)” value is 0.00795. Regarding “CTCCCTACATGGACCGGTTTTCCCGGTAATCCGTATTTGAG (site CTGCCTACTCT)”, the “recombinant UMI read abundance (log10)” value is 0.0259. “CTCCCTACATGGACCGGTTTTCCCGGTAATCCGTATTTGAG (site CTTCCTACTCT)”: the “recombinant UMI read abundance (log10)” value stood at 0.0102. As for “CTCCCTACATGGACCGGTTTTCCCGGTAATCCGTATTTGAG (site GTCCCTACTCT)”, the “recombinant UMI read abundance (log10)” value was 0.0115. For “CTCCCTACATGGACCGGTTTTCCCGGTAATCCGTATTTGAG (site TTCCCTACTCT)” the value was 0.00609; for “CTCCCTGCATGGACCGGTTTTCCCGGTAATCCGTATTTGAG (site CTCCCTACTCT)”, 0.664; for “CTCCCTGCATGGACCGGTTTTCCCGGTAATCCGTATTTGAG (site CTCCCTCCTCT)”, 0.00848. Consider “CTCCCTGCATGGACCGGTTTTCCCGGTAATCCGTATTTGAG (site CTCCCTGCTCT)”, for which the “recombinant UMI read abundance (log10)” value came to 1.16. For “CTCCCTGCATGGACCGGTTTTCCCGGTAATCCGTATTTGAG (site CTCCCTTCTCT)” the value was 0.325; for “CTCCCTTCATGGACCGGTTTTCCCGGTAATCCGTATTTGAG (site CTCCCTACTCT)”, 0.0118. Turning to “CTCCCTTCATGGACCGGTTTTCCCGGTAATCCGTATTTGAG (site CTCCCTCCTCT)”, the “recombinant UMI read abundance (log10)” value stood at 0.0285. As to “CTCCCTTCATGGACCGGTTTTCCCGGTAATCCGTATTTGAG (site CTCCCTGCTCT)”, the “recombinant UMI read abundance (log10)” value was determined as 0.00848. Take “CTCCCTTCATGGACCGGTTTTCCCGGTAATCCGTATTTGAG (site CTCCCTTCTCT)”: the “recombinant UMI read abundance (log10)” value was 0.898.

In the case of “CTCCGAACATGGACCGGTTTTCCCGGTAATCCGTATTTGCG (site CTCCGAACTCG)”, the “recombinant UMI read abundance (log10)” value came out at 0.829. The result for “CTCCGTGCATGGACCGGTTTTCCCGGTAATCCGTATTTGGC (site CTCCGTGCTGC)” reads 1.87. For “CTCGAAACATGGACCGGTTTTCCCGGTAATCCGTATTTGCA (site CTAGAAACTTG)” the value was 0. For “CTCGAAACATGGACCGGTTTTCCCGGTAATCCGTATTTGCA (site CTCGAAACTTG)” the value was 2.34; for “CTCGAAACATGGACCGGTTTTCCCGGTAATCCGTATTTGCA (site CTGGAAACTTG)”, 0; for “CTCGAAACATGGACCGGTTTTCCCGGTAATCCGTATTTGCA (site CTTGAAACTTG)”, 0. Turning to “CTCGAACCATGGACCGGTTTTCCCGGTAATCCGTATTTGAC (site CTCGAACCTGT)”, the “recombinant UMI read abundance (log10)” value was 0. In the case of “CTCGAATCATGGACCGGTTTTCCCGGTAATCCGTATTTGAA (site CTCGAATCTTT)”, the “recombinant UMI read abundance (log10)” value was determined as 1.86. Turning to “CTCGAGTCATGGACCGGTTTTCCCGGTAATCCGTATTTGTG (site CTCGAGTCTCA)”, the “recombinant UMI read abundance (log10)” value was determined as 1.87. In the case of “CTCGATACATGGACCGGTTTTCCCGGTAATCCGTATTTGCT (site CTCGATACTAG)”, the “recombinant UMI read abundance (log10)” value was determined as 2.37.

Values taken from the supplement of paper PMC11208160.
